Converted amounts (≈) assume the structure as drawn. Read-outs that look alike come from different tables or passages of the source.
Legend:
S. aureus MRSA 12673 = assay: Microbroth dilution assay; format: cell-based; details: Staphylococcus aureus, S. aureus MRSA 12673
[1] = target: T1, AGE2-BSA/sRAGE interaction (Homo sapiens, UniProt Q15109); assay: ELISA AGE2-BSA/sRAGE inhibitory screening; format: binding
T1 construct: purchased Creative BioMart
Protocol: The in vitro inhibitor screening of AGE2 (glyceraldehyde-modified AGE)-sRAGE interaction (soluble RAGE) was performed using a 96-well AGE-BSA-coated plate (Creative BioMart® ELISA kit, Shirley, NY, USA), according to the manufacturer’s instructions. 100 UA/mL soluble RAGE (sRAGE) was incubated with 100 μM of the tested compounds or 0.05% DMSO as a negative control on an AGE2-BSA-coated plate at room temperature for 60 min, shaking at 300 rpm on an orbital microplate shaker. After incubation, the wells were washed 4 times with wash buffer and horseradish peroxidase (HRP)-labeled anti-RAGE antibody was added and the plate was further incubated at room temperature for 60 min, shaking at 300 rpm on an orbital microplate shaker. After incubation, the wells were washed 4 times with wash buffer and the Substrate Reagent was added to each well. After an incubation at room temperature for 5 min, the HRP-labeled antibody sRAGE-AGE complex was then detected by measuring the absorbance at 450 nm using the microplate reader Varioskan (Thermo Fischer Scientific). These experiments were repeated two times.

C. albicans ATCC 10231 = assay: Microbroth dilution assay; format: cell-based, Candida albicans
Protocol: (§1) The minimum inhibitory concentration (MIC) and minimum bactericidal/fungicidal concentration (MBC/MFC) of the tested compounds were determined by the microbroth dilution technique using 96-well plates based on the methodology described in the EUCAST (European Committee on Antimicrobial Susceptibility Testing) standards. Reference and clinical strains of Gram-positive (Staphylococcus aureus ATCC 6538, Staphylococuccus aureus MRSA 6347) and Gram-negative (Escherichia coli ATCC 8739) bacteria, and yeast (Candida albicans ATCC 10231, Candida glabrata ATCC 2001) were used for the assay. The studies were carried out in the Mueller–Hinton (MH) broth for bacteria and RPMI 1640 broth + MOPS (Sigma-Aldrich, Poland) buffer in the case of yeast. The dry test samples were dissolved in DMSO (dimethyl sulfoxide), resulting in a final concentration of 15 mg/mL, and then diluted in a geometric progression. Ampicillin (Sigma-Aldrich, Poland) acted as a control sample (512 to 4 µg/mL) for bacteria and ketoconazole (128 to 1 µg/mL) (Sigma-Aldrich, Poland) acted as a control sample for yeast. The cultures of microorganisms were prepared by transferring cells from the stock cultures to tubes with the appropriate broth and incubated with agitation in an aerobic atmosphere for 18 ± 2 h at 35 ± 1 °C; next, they were diluted to achieve an optical density corresponding to 5 × 105 (bacteria) or 2 × 105 (yeast) colony-forming units per mL (cfu/mL). An appropriate media (96 µL), along with the tested compounds with a final concentration range of 300–3.1 µg/mL (4 µL) and next microbial suspension (100 µL) were added to each well. Plates with samples were incubated in adequate conditions described above and microbial growth was assessed. […] (>90%; ketoconazole) but 50% (for other compounds) inhibits visible growth of yeasts. Next, as a control of microbial viability, 100 µL of the samples from each well without growth was inoculated on the MH or RPMI agar plates and incubated for 18 ± 2 h at 35 ± 1 °C and finally, the CFU was counted. The MBC/MFC was determined as the minimum concentration of compounds required to kill 99.9% the organisms.

AGS = assay: MTT assay, cytotoxic activity; format: cell-based, human; details: Homo sapiens, 24 h, n = 12
Protocol: (§2) The human ovarian SKOV-3, gastric adenocarcinoma AGS, cervical HeLa cell lines and non-cancerous keratinocytes HaCaT were obtained from the American Type Culture Collection (ATCC, Manassas, VA, USA). The cell lines were cultured in McCoy’s Medium, Dulbecco’s Modified Eagle’s Medium/F12, and DMEM, respectively (Merck Millipore, Burlington, MA, USA). Penicillin (100 units/mL), streptomycin ([…]), and 10% (v/v) fetal bovine serum (FBS) were added to all the media. The cells were incubated at 37 °C and 5% CO2.
(§3) To estimate the cytotoxic activity of the obtained compounds 2a-i, MTT assay was used. The cells (5 × 10^3 cells/well) were treated with the compounds in a range of concentrations 1–150 µg/mL. […] After 24 h, MTT solution (0.5 mg/mL) was added to the cells. Formazan crystals were dissolved in DMSO and the absorbance was measured with a microtiter plate reader (Epoch, BioTek Instruments, Winooski, VT, USA).

HeLa = assay: MTT assay, cytotoxic activity; format: cell-based, human; details: Homo sapiens, 24 h, n = 12
Protocol: as §2, §3

SKOV-3 = assay: MTT assay, cytotoxic activity; format: cell-based, human; details: Homo sapiens, SK-OV-3; SKOV-3, MTT, 24 h, n = 12
Protocol: as §2, §3

E. coli ATCC 8739 = assay: Microbroth dilution assay; format: cell-based; details: Escherichia coli, ATCC8739, E. coli ATCC 8739
Protocol: as §1

HaCaT = assay: MTT assay, cytotoxic activity on non-cancerous keratinocytes; format: cell-based; details: Homo sapiens, 24 h, n = 12
Protocol: as §2, §3

T1 sequence (Q15109 23-342 limits assumed): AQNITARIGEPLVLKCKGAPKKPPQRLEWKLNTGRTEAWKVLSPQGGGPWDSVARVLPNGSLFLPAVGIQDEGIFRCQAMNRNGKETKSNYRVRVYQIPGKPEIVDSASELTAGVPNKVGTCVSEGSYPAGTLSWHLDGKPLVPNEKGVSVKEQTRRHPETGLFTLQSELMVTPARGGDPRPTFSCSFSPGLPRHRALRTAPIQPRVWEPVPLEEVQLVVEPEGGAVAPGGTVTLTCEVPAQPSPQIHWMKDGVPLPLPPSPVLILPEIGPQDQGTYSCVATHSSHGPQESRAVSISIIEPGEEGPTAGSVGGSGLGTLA

MIC (S. aureus MRSA 12673; read-out: MIC): 30 µg/mL (≈ 88.9 µM)
inhibition at 100 µM [1]: 49.4%
MIC (C. albicans ATCC 10231; C. albicans ATCC 10231): 120 µg/mL (≈ 356 µM)
MIC (C. albicans ATCC 10231; Candida albicans, ATCC10231, C. albicans ATCC 10231, read-out: MIC): 60 µg/mL (≈ 178 µM)
MIC (E. coli ATCC 8739; read-out: MIC): > 240 µg/mL
Compound: C(=C(\C1=NCCN1)n1ccc2ccccc21)/c1ccc2ccccc2c1 [Compound 2i, (Z)-1-[1-(4,5-dihydro-1H-imidazol-2-yl)-2-(naphthalen-2-yl)vinyl]-1H-indole]
MBC (S. aureus MRSA 12673): 30 µg/mL (≈ 88.9 µM)
MFC (C. albicans ATCC 10231; C. albicans ATCC 10231): 120 µg/mL (≈ 356 µM)
MFC (C. albicans ATCC 10231; Candida albicans, ATCC10231, C. albicans ATCC 10231, read-out: MFC): 60 µg/mL (≈ 178 µM)
IC50 (AGS): 5.68 ± 0.41 µg/mL (≈ 16.8 µM)
IC50 (HeLa): 2.03 ± 0.05 µg/mL (≈ 6.02 µM)
IC50 (SKOV-3): 2.45 ± 0.13 µg/mL (≈ 7.26 µM)
MBC (E. coli ATCC 8739): > 240 µg/mL
IC50 (HaCaT): 3.02 ± 0.18 µg/mL (≈ 8.95 µM)
